Measurements taken from patent US12679845B2, “Crystal form of triazolopyridine-substituted indazole compound and preparation method therefor” (SHENZHEN OPTIMUM BIOLOGICAL TECHNOLOGY CO., LTD, priority 2021, dated 2026).

Columns and labels:
[1] = In vivo PK study in Lewis female rats; settings: rat, po 0.3 mg/kg, plasma
Experimental: The animals were weighed before administration, and the administration volume was calculated based on the body weight.
Approximately 0.2 mL of whole blood sample was collected at the specified time by jugular venipuncture (or other appropriate blood collection site), and the actual blood collection time was recorded in the experimental record. The acceptable error for the collection time point is ±1 minute within 1 hour after administration, and ±5% of the theoretical time for other time points. All blood samples were immediately transferred to labeled commercial centrifuge tubes containing K2-EDTA. After collection, the blood sample was centrifuged at 4° C., 3200 g for 10 minutes to aspirate the supernatant plasma, which was immediately placed in dry ice and then stored at −60° C. or lower for LC-MS/MS analysis.
The concentration of the test sample in plasma was determined by the LC-MS/MS bioanalytical method.

[2] = Solid stability test (XRPD) under high temperature, high humidity and strong light; assay type: physicochemical
Excerpt: For samples placed under high temperature and high humidity conditions, the vial was sealed with aluminum foil punched with small holes to ensure that the samples could fully contact with the ambient air; for samples placed under strong light conditions, the vial was sealed with a threaded cap. The samples placed under different conditions were sampled and detected (XRPD) on day 5, day 10, and month 3, and the results were compared with the initial results on day 0.

[3] = Hygroscopicity study by dynamic vapor sorption (DVS); assay type: physicochemical; settings: 25° C.; for Hygroscopic weight gain (ΔW): 80% RH compared to 0% RH
Experimental: • Instrument model: TA Discovery TGA 5500 thermal gravimetric analyzer • Test method: The sample (2 to 5 mg) is placed in a platinum pot and tested under the protection of 25 mL/min dry nitrogen, and the method is: heating from room temperature to 350° C. at a rate of 10° C./min. Dynamic Vapor Sorption (DVS) Method of the Present Disclosure • Instrument model: SMS (Surface Measurement Systems) dynamic vapor sorption analyzer • Test conditions: The sample (10 to 15 mg) is taken and placed in a DVS sample dish for testing.
The detailed DVS parameters are as follows: • Temperature: 25° C. • Equilibrium: dm/dt=0.002%/min (minimum: 10 min, maximum: 180 min) • Drying: drying for 120 min under 0% RH RH (%) Test Gradient: • 10% (0% RH to 90% RH, 90% RH to 0% RH) • 5% (90% RH to 95% RH, 95% RH to 90% RH) RH (%) • RH (%) test gradient range: 0% to 95%
SMS DVS Advantage dynamic vapor sorption analyzer
10 to 15 mg of the crystal form S of the compound of formula (I) was taken and placed in a DVS sample disk for testing.

[4] = tested on: MMTV transcriptional activity (GR); assay: MMTV_GR transcriptional activation activity assay, luciferase reporter gene in HeLa cells; assay type: cell-based
Excerpt: Experimental Example 2: In Vitro Assay of Compounds for Activation of MMTV Transcriptional Activity in Luciferase Reporter Gene Screening System
The mouse mammary tumor virus (MMTV) promoter contains specific binding sites that activate GR (GREs). To determine the activity of the compound, a reporter gene (luciferase) was inserted behind the MMTV promoter, and the structure was expressed in a stable manner in the genome of the HeLa cell line. The MMTV promoter was activated using the test compound to induce the luciferase expression, and its activity was detected by luminescence measurements.
The final DMSO experimental concentration was 0.1%.
MMTV_GR Transcriptional Activation Activity Assay
1) Cell inoculation: Fresh cells were inoculated into a 384-well white transparent bottom assay plate at 4×10^3 cells/30 μL/well and incubated in a 37° C., 5% CO2 incubator for 24 hours.
2) Compound preparation: The compound plate was configured before the start of the experiment. […]
4) 30 μL of Bright-Glo fluorescence assay reagent was transferred to the cell plate. […]
6) The fluorescence value was determined using an Envision plate reader. […]
The concentration curve of the test compound was plotted using the graphing software GraphPad Prism5, and the […] value was calculated.

Row | SMILES | AUC [1] [µM·h] | Cmax [1] [nM] | Tmax [1] [h] | half-life [1] [h] | Crystal form (XRPD) ([2]; Day 0, initial) | Crystal form (XRPD) ([2]; High humidity (room temperature/relative humidity: 92.5%, open), Day 5) | Crystal form (XRPD) ([2]; High humidity (room temperature/relative humidity: 92.5%, open), Day 10) | Crystal form (XRPD) ([2]; High humidity (room temperature/relative humidity: 92.5%, open), Month 3) | Crystal form (XRPD) ([2]; High temperature (60° C., open), Day 5) | Crystal form (XRPD) ([2]; High temperature (60° C., open), Day 10) | Crystal form (XRPD) ([2]; High temperature (60° C., open), Month 3) | Crystal form (XRPD) ([2]; Strong light (5000 lx, sealed), Day 5) | Crystal form (XRPD) ([2]; Strong light (5000 lx, sealed), Day 10) | Crystal form (XRPD) ([2]; Strong light (5000 lx, sealed), Month 3) | Classification of hygroscopicity ([3]; 80% RH) | Hygroscopic weight gain (ΔW) ([3]; listed as crystal form Q of the compound of formula (I)) [%] | EC50 ([4]; Homo sapiens, 20 to 24 h, read-out: TA (MMTV transcriptional activation activity) EC50) [nM] | TA (MMTV transcriptional activation activity) Effect ([4]; positive control 1000 nM Dexamethasone) [%] | Hygroscopic weight gain (ΔW) [3] [%]
1 | CC(C)[C@H](NC(=O)C(C)(F)F)[C@H](Oc1ccc2c(cnn2-c2ccc3nncn3c2)c1)c1ccccc1 [listing 1 of 2 here] | 3.15 | 361 | 4.5 | 3.57 | Crystal form Q | Crystal form Q | Crystal form Q | Crystal form Q | Crystal form Q | Crystal form Q | Crystal form Q | Crystal form Q | Crystal form Q | Crystal form Q | slightly hygroscopic | 0.21 | 7.72 | 63.86 | 
2 | CC(C)[C@H](NC(=O)C(C)(F)F)[C@H](Oc1ccc2c(cnn2-c2ccc3nncn3c2)c1)c1ccccc1 [listing 2 of 2 here] |  |  |  |  |  |  |  |  |  |  |  |  |  |  |  |  |  |  | 0.6
